Source: ChEMBL document CHEMBL3745605, “Aspernigrins with anti-HIV-1 activities from the marine-derived fungus Aspergillus niger SCSIO Jcsw6F30” (Bioorg Med Chem Lett, 2016)
The source made the active and inactive calls. The calls are words filed in the database; no cut-off is given here. Bridge positions count the residues as written; N and C are the ends. Square brackets hold non-standard residues; d marks the D form. Peptide text beside a SMILES is read from it.

What was measured:
[1] = system: Human immunodeficiency virus 1; experiment: Antiviral activity against HIV-1 SF162 infected in TZM-bl cells at 50 uM after 2 days by luciferase reporter gene assay; type: functional, cell-based; settings: SF162 ISOLATE
[2] = system: Human immunodeficiency virus 1; experiment: Antiviral activity against HIV-1 SF162 infected in TZM-bl cells after 2 days by luciferase reporter gene assay; type: functional, cell-based; settings: Human immunodeficiency virus 1, SF162 ISOLATE, 48 h
[3] = Cytotoxicity against human TZM-bl cells after 2 days by colorimetric XTT assay; type: cell-based
[4] = Selectivity index, ratio of CC50 for human TZM-bl cells to IC50 for HIV-1 SF162 infected in TZM-bl cells; type: functional

IC50 [2] [µM]	SMILES	Activity [1]	CC50 at 48 h [3] [µM]	Ratio CC50/IC50 [4]
4.7	COc1cc([C@H](Cc2ccccc2)n2cc(C(=O)NC(=O)C[C@H](C)C(=O)O)c(=O)cc2Cc2ccccc2)oc(=O)c1	–	35	7.5
1.8	COc1ccc(S(=O)(=O)O)cc1/N=N/c1c(S(=O)(=O)O)cc2cc(Nc3nc(Nc4ccccc4)nc(Nc4cc(C)c(/N=N/c5cc(S(=O)(=O)O)cc6cc(S(=O)(=O)O)cc(O)c56)cc4OC)n3)ccc2c1O	–	–	–
1.4	CC(C)C[C@@H]1NC(=O)[C@@H](CC(C)C)NC(=O)[C@H](C(C)C)NC(=O)[C@H]2CSSC[C@@H](NC1=O)C(=O)N2 (cyclo(L[dC][dC]V[dL]); disulfide 2-3)	–	16.4	11.4

The remaining lines, values behind:

SMILES	IC50 [2] [µM]	Activity [1]	CC50 at 48 h [3] [µM]	Ratio CC50/IC50 [4]
COc1cc(OC)c2c(O)c3c(=O)cc(C)oc3cc2c1	–	inactive	–	–
COC(=O)[C@@H](C)CC(=O)NC(=O)c1cn([C@@H](Cc2ccccc2)c2cc(OC)cc(=O)o2)c(Cc2ccccc2)cc1=O	–	inactive	–	–
COc1cc(O)cc2cc3c(c(O)c12)C(=O)CC(C)(O)O3 (stereo not drawn)	–	inactive	–	–
COc1cc([C@H](Cc2ccccc2)n2cc(C(N)=O)c(=O)cc2Cc2ccccc2)oc(=O)c1	–	inactive	–	–
NC(=O)c1c[nH]c(Cc2ccccc2)cc1=O	83.2	–	583	7
COc1cc(O)c2c(O)c3c(=O)cc(C)oc3cc2c1 [RUBROFUSARIN]	56.2	–	1020	18.1
Nc1nc(NC2CC2)c2ncn([C@H]3C=C[C@@H](CO)C3)c2n1 [ABACAVIR]	0.8	–	–	–
